Data set [1] relates to human breast cancer (MCF7) cells. In words: MTT cell viability assay, MCF7. Type of data set: cell-based. The note with it: for IC50: read-out: IC50 MCF-7. How it is done:
(§1) The cytotoxic effect of the Hapbim ligand and its complexes (1) and (2) on human breast cancer (MCF7), human colorectal cancer (Caco2), and human normal liver (THLE-2) cell lines was evaluated by the MTT assay. The cells were cultured in a 96-well plate (1 × 10^4 cells/well, 100 μL/well) containing DMEM medium provided with 10% fetal bovine serum, and 1% penicillin/streptomycin. Then, the cells were incubated at 37 °C for 24 h in a CO2 incubator under 5% CO2, 95% air until reaching a confluence of 70–80%. A 20 μL volume of each compound at different concentrations (from 5 to 400 μM for the cancer cell and from 600 to 1000 μM for the normal cells) was added and the cells were re-incubated for a further 24 h. After the incubation period, the cells were incubated again with 5 mg/mL of MTT for 4 h and then the medium was replaced with 100 μL DMSO and vortexed for 20 min. Finally, the absorbance was recorded at 570 nm using the microplate reader. […] To calculate the cell inhibition percentage, the following equation was used:% Cell inhibition = 100 − % cell viability ((At − Ab)/(Ac − Ab)) × 100%)(4) where At is the absorbance value of tested compound; Ab is the absorbance value of blank; Ac is the absorbance value of the control.

The test system of data set [2] is human colorectal cancer (Caco2) cells. The data set can be described thus: MTT cell viability assay, Caco2. Type of data set: cell-based. The note with it: for Therapeutic index: IC50 of THLE-2 cell/IC50 of Caco2: in vitro. Here is the method: as §1
In data set [3] the test system is Ehrlich ascites carcinoma (EAC) cells. Further details: method as in PMID 28599251. As to conditions: literature comparison; cited from earlier work.
Another data set deals with CT DNA (EB-DNA adduct). The data set can be described thus: Ethidium bromide (EB-DNA) competitive fluorescence assay. Type of data set: binding, calf. The note with it: [DNA] = [EB] = 5 μM. Here is the method:
The binding affinity of the metal complexes towards CT DNA was evaluated using competitive fluorescence studies. CT DNA pretreated with ethidium bromide (EB) ([DNA] = [EB] = 5 μM) in Tris-HCl/NaCl buffer (pH = 7.2) was incubated with the complexes in concentrations of 0–90 μM. […] The quenching of EB-DNA adduct fluorescence was followed by monitoring the emission spectra in the wavelength range of 530–650 nm. Upon addition of the metal complexes to the EB-DNA adduct, the quenching binding constant (Kq) at λ = 585 nm is determined from the Stern-Volmer Equation (2):I0/I = 1 + Kq[Q](2) where I0 and I are the fluorescence intensities of EB-DNA in the […] of the metal complexes, respectively, [Q] is the concentration of the tested compounds, and Kq is the quenching constant calculated from the slope of the straight line obtained from plotting Io/I vs. [Q]. In addition, the apparent binding constant can be calculated from Equation (3):KEB[EB] = Kapp[Q](3) where KEB = 1 × 10^7 M^−1 [EB] is the ethidium bromide concentration (5 μM) and [Q] is the concentration of the quencher that provides a 50% intensity reduction of the initial EB-DNA adduct.

Data set [4] can be described thus: Solution stability by UV-Vis spectroscopy. Type of data set: physicochemical. As to conditions: 4% DMSO, 96% PBS, pH 7.4, over 24 h. Here is the method:
Stability studies of complexes (1) and (2) were carried out by UV-Vis spectroscopy in the 200–900 nm range. […] The electronic spectra for the solutions were measured over 24 h.

The nature of a further data set: Cyclic voltammetry. Type of data set: physicochemical. The note with it: 10^−3 M in CH2Cl2/DMSO, 0.1 M (Bu4N)PF6, scan rate 50 mVs^−1. Here is the method: Elemental analyses (C, H, N) were performed by the Microanalysis unit in the Department of Chemistry at Simon Fraser University. Infrared spectra (FTIR) were performed on a JASCO 4100 FTIR spectrophotometer in the 4000–400 cm^−1 range using a KBr disc. NMR (^1H and ^13C) spectra were recorded in DMSO-d6 solvent using a Bruker 400 MHz instrument. The 2D NMR analysis (^1H–^1H COSY) was performed on a Jeol 500 MHz NMR, at Mansoura University. ESI/APCI HRMS data were acquired on a Thermo Scientific Exactive Plus Orbitrap mass spectrometer. Electronic spectra (in DMSO, 200–900 nm) were measured on a JASCO 630 V spectrophotometer. Emission spectra of the complexes were measured on a Jenway model 6285 spectrofluorimeter for excitation and emission spectra, 200–700 nm. The magnetic susceptibility of the complexes was measured on a Johnson Matthey magnetic susceptibility balance. […] A microplate reader (StatFax-2100, Awareness Technology, Inc., Palm City, FA, USA), Attune flow cytometer (Applied Biosystems, Foster City, CA, USA), Quawell nanodrop Q5000 (San Jose, CA, USA), StepOnePlus real time PCR system (Applied Biosystems, Foster City, CA, USA), and CO2 incubator (NuAire In-Vitro Cell, Plymouth, MN, USA) were used in biological studies.

The text below walks through data of publication PMC7570852, “Ruthenium(II)/(III) DMSO-Based Complexes of 2-Aminophenyl Benzimidazole with In Vitro and In Vivo Anticancer Activity” (Molecules, 2020).

In brackets after ≈: the same amount, converted by molar mass. Several values for one entry are separate records, joined by “and”; a condition that tells them apart may be missing. Equal values may be shown once. Read-outs that look alike come from different tables or passages of the source.

For the molecule `N.N.[Cl][Pt][Cl]` [Cisplatin, reference compound], in data set [1] (24 h), the “IC50 MCF-7” value is 22 ± 1 µg/mL and the IC50 came out at 73 ± 5 µM.

Take `Nc1ccccc1-c1nc2ccccc2[nH]1` [Hapbim, 2-aminophenyl benzimidazole]: the IC50 in data set [1] (Homo sapiens, MCF7, 24 h) was 61 µg/mL and 290 µM; in data set [2] (Homo sapiens, Caco-2, MTT, 24 h), 80 µg/mL and 380 µM. For the same molecule, in data set [2], the “Therapeutic index: IC50 of THLE-2 cell/IC50 of Caco2” value stood at 14.2.

Turning to `CN(Cc1cnc2nc(N)nc(N)c2n1)c1ccc(C(=O)N[C@@H](CCC(=O)O)C(=O)O)cc1` [methotrexate], the “IC50 against EAC cells” value in data set [3] was 98 ± 2 µg/mL (≈ 216 µM).

Regarding [Ru(II)Cl2(DMSO)2(Hapbim)] [(1)], in the data set with CT DNA (EB-DNA adduct) (KEB = 1 × 10^7 M^−1), the “Kapp (apparent binding constant)” value is 1.08 ± 0.11 × 10^7 M^−1. For the same molecule, the “Kq (quenching constant)” value in the data set on CT DNA (EB-DNA adduct) (Stern-Volmer, 585 nm) is listed as 1.96 ± 0.04 × 10^3 M^−1. Also, in data set [1] (24 h), the “IC50 MCF-7” value is listed as 170 ± 10 µg/mL and the IC50 was 320 ± 20 µM. Also, in data set [2] (MTT, 24 h), the IC50 is 290 ± 20 µM and the “IC50 Caco2” value is on record as 155 ± 9 µg/mL. Also, the “Therapeutic index: IC50 of THLE-2 cell/IC50 of Caco2” value in data set [2] is 6.4. Further, the “solution stability (UV-Vis spectral change)” value in data set [4] was “remain relatively unchanged over the first two hours”. Further, the “E1/2 (Ru(II)/Ru(III) redox couple)” value in “Cyclic voltammetry” came out at 615 mV.
